Source: US20210154271A1, “CORNEAL EPITHELIAL CELL CHEMOTAXIS PROMOTER” (SHIODA LIFE SCIENCE INC., priority 2018, published 2021)
Ends that are not written are not given here.

What was measured:
HCEC-II cells [1] = test: Analysis of cell growth ability (MTT-assay); format: cell-based, human
Method: (§1) Normal human corneal epithelial cells HCEC-II (manufactured by Kurabo Industries Ltd.) were cultured in an OcuLifeBM medium containing OcuLifeLifeFactor (both manufactured by Kurashiki Spinning Co., Ltd.) at 37° C., in the presence of 5% CO2.
HCEC-II cells were seeded in 96-well plates and cultured for 24 h. Subsequently, PACAP alone, or PACAP and AraC (cytarabine) were added. AraC (cytarabine) is a cytostatic agent. After the addition of these agents, the cell growth ability was analyzed by measuring the number of live cells from the value of absorbance at 570 nm using MTT cell growth kit I (manufactured by Roche Life Science Co., Ltd.). The reference wavelength was set at 650 nm.
The effects of PACAP are either due to 1) promoting cell growth, 2) promoting cell chemotaxis, or 3) promoting both cell growth and chemotaxis. To elucidate which of these could be caused, cell growth on days 1 and 4 after adding various concentrations of PACAP (10^−9 M to 10^−13 M) were analyzed by MTT-assay.

[2] = system: model mice with injured corneas; test: Instillation of PACAP receptor antagonists on model mice with injured corneas; format: in vivo, mouse
Text: Next, to investigate which types of receptors are involved in healing-promoting effects of injured corneas by PACAP, the inventors performed an instillation experiment of PACAP receptor antagonists (PACAP6-38, VIP6-28). PACAP6-38 is an antagonist of PAC1R and VPAC2R. VIP6-28 is an antagonist of VPAC1R and VPAC2R.
In addition to the same operations as the instillation experiment in Example 5, PACAP6-38 (antagonist) (10^−9 M) or VIP6-28 (antagonist) (10^−9 M) was instilled immediately before instillation of PACAP and saline. Instillation of PACAP and saline ware performed every 2 hours.
Following four groups were created; the saline-only-instilled group, the PACAP-only-instilled group, the group instilled saline and an antagonist simultaneously, the group instilled PACAP and an antagonist simultaneously.
FIG. 10A is the result of PACAP6-38, and FIG. 10B is the result of VIP6-28. In FIG. 10, “saline” indicates the saline-only-instilled group. “PACAP” indicates the PACAP-only-instilled group. “PACAP6-38” or “VIP6-28” indicates the group instilled saline and an antagonist simultaneously. “PACAP6-38+PACAP” or “VIP6-28+PACAP” indicates the group instilled PACAP and an antagonist simultaneously.
As well as FIG. 9C, the area of the injured site of the cornea immediately after injury to the cornea (0 hour) is set as 100%.

[3] = system: Normal human corneal epithelial cells HCEC-II; test: Scratch assay on HCEC-II cells; format: cell-based
Method: as §1
Wound-healing-promoting effects of PACAP were evaluated by scratch assay. HCEC-II cells were seeded in 24-well plates, cultured, and then wounded by a CELL Scratcher scratch stick (manufactured by Asahi Glass Co., Ltd.) (between a dotted line and a dotted line in FIG. 1).
Immediately after wounding, PACAP38 alone or PACAP38 and AraC were added, and cells infiltrating the wounded area were observed.
(§2) Outcomes of scratch assay and BrdU labeling were evaluated as following. Images were acquired by BZ-X700 (Keyence Inc.), and then quantitatively analyzed using the analysis applications (hybrid cell counts, macro cell counts) (Keyence Inc.).

HCEC-II cells [4] = test: BrdU labeling of dividing cells; format: cell-based, human; conditions: 18 hours after adding PACAP (FIGS. 4A, 4B and 5)
Method: Post-wounding dividing cells were observed by labeling with BrdU Labeling and Detection Kit I (Roche).
as §2

[5] = system: model mice with injured corneas; test: PACAP instillation on model mice with injured corneas; format: in vivo, mouse (C57BL/6J)
Method: To study the healing effects of PACAP instillation on an injured site of a corneal, the inventors created model mice with injured corneas. Injured sites were created by marking a cornea of a mouse (C57BL/6J, male, 8-12 weeks old) with a 1-mm-diameter biopsy punch and detaching corneal epithelia within the marks with tweezers. At the injured sites, 2 μL of 10^−9 M PACAP, 10^−11 M PACAP, 10^−13 M PACAP, or saline was instilled every 2 hours for a total of seven times up to 12 hours later. In addition, the injured sites were visualized by instilling 2 μL of 0.1% fluorescein (a fluorescent colorant) in a total of 3 times after 0, 12, and 24 hours, and photographing was performed.
In addition, eyeballs at after 0 and 12 hours were removed, and tissue sections were made after paraffin embedding, followed by hematoxylin and eosin staining (HE staining). From the captured fluorescent images, by using image analysis software (ImageJ), the area and the outer periphery of injured sites of corneas were measured when saline was instilled and when PACAP of the respective concentrations were instilled.
(§3) The area of the injured site of the cornea immediately after injury to the cornea (0 hour) is set as 100%.

[6] = system: mice with lacrimal glands removed, injured corneas; test: Corneal healing in mice with lacrimal glands removed; format: in vivo, mouse; conditions: LG−PACAP vs LG−saline, 10^−11 M PACAP, 12 hours after injuring, p<0.05 (FIG. 11)
Text: (§4) First, mice with lacrimal glands removed were generated. Under inhalation anesthesia with sevoflurane, the extraorbital lacrimal glands and lacrimal ducts of mice were removed. Both lacrimal glands were removed after the lacrimal ducts were removed to expose the intraorbital lacrimal glands. Then the skin was sutured and the mice were kept warm until awaking from anesthesia. The amount of tear secretion in mice before and after removal of lacrimal glands was confirmed by the cotton thread method.
FIG. 11 is a graph showing the measurement result of the area of injured sites of corneas (fluorescent area) of upon administration of saline or PACAP at 0, 12, and 24 hours after injuring of corneas of mice. The method and the frequency of administration of saline or PACAP were the same as in Example 5.
as §3
In FIG. 11, “LG+saline” indicates the result of saline administration to mice without lacrimal glands removed. “LG+PACAP” indicates the result of PACAP administration to mice without lacrimal glands removed. “LG−saline” indicates the result of saline administration to mice with lacrimal glands removed. “LG−PACAP” indicates the result of PACAP administration to mice with lacrimal glands removed. The concentration of PACAP is 10^−11 M.

[7] = system: mice with lacrimal glands removed; test: Tear secretion by the cotton thread method; format: in vivo, mouse; conditions: mice with lacrimal glands removed (not shown in figures)
Text: as §4

[8] = system: SV40-human corneal epithelial cell line (HCEC); test: In vitro scratch assay on monolayer sheets of human corneal cultured cells; format: cell-based; conditions: 10^−11 M PACAP, 6 hours after scratching, vs PBS-treated control group (FIG. 12B)
Method: To evaluate the corneal healing effects of PACAP in vitro, a scratch assay was performed using a human corneal epithelial cell line. A SV40-human corneal epithelial cell line (HCEC) was purchased from the Human Science Research Resource Bank (Health Science Research Resources Bank). Cells were cultured in a medium containing DMEM, 1×antibiotic-antifungal agent (manufactured by Thermo Fisher Scientific Co., Ltd.), and 10% fetal bovine serum (FBS). Cultures were performed at 37° C. in the presence of 5% CO2.
In invasion assays, a floating HCEC with 10^6 cells was seeded in 12-well plates. After 2 days of incubation, the confluent cell layer was cross-shaped wounded with plastic sticks. PBS or various types of PACAP (final concentrations: 10^−15 M, 10^−13 M, 10^−11 M, 10^−9 M, and 10^−7 M) were added to […]. Scratch sites (wounded sites) were photographed by Nicon Biostation CT (Nikon Co., Ltd.) at regular intervals. Areas of the scratch sites were measured by CL-Quant software (made by Nikon Inc.).
The area of the scratch site immediately after the scratch (0 hour) is set as 100%.

[9] = system: eye of a rabbit with detached corneas; conditions: PACAP administered to eye, in comparison with controls; cited from earlier work
[10] = 10^−9 M PACAP and 15 μM AraC (FIG. 1A to C)

**Q.** With Nc1ccn([C@@H]2O[C@H](CO)[C@@H](O)[C@@H]2O)c(=O)n1 [AraC, cytarabine, reference compound] as the compound, how does the “effect of AraC on the cell-growth-promoting effects of PACAP” value (HCEC-II cells [1]; 15 μM AraC) read?
**A.** The value was “almost completely suppressed”.

**Q.** For “VIP6-28: PACAP receptor antagonist; antagonist of VPAC1R and VPAC2R (FTDNYTRLRKQMAVKKYLNSILN; ends and bridges not checked; UniProt P01282 130-152, looked up, fragment)”, which “effect of antagonist on PACAP-induced healing of injured corneas” value ([2]; antagonist 10^−9 M instilled with PACAP (FIG. 10B)) is on record?
**A.** The value was “not suppressed”.

**Q.** For “PACAP: Pituitary Adenylate Cyclase-Activating Polypeptide; PACAP38, 38 amino acid residues (Peptide Research Institute, Osaka) (HSDGIFTDSYSRYRKQMAVKKYLAAVLGKRYKQRVKNK; ends and bridges not checked; UniProt P18509 132-169, looked up)”, which “cell-infiltration compared with 10^−9 M PACAP alone” value [3, 10] is on record?
**A.** The value was “less”.

**Q.** And the “cell-infiltration compared with controls” value [3, 10]?
**A.** The value was “increased more than in controls”.

**Q.** And the “area of the wounded site at 18 h” value ([3]; 10^−9 M PACAP in the presence of 15 μM AraC, compared to the control (FIG. 6))?
**A.** The value was “increased”.

**Q.** And the “cellular infiltrates at the wounded site” value ([3]; 10^−9 M PACAP, 4 days post-wounding, compared to controls (FIG. 1A, B))?
**A.** The value was “more cellular infiltrates were observed at the wounded site”.

**Q.** And the “area of the wounded site” value ([3]; 10^−9 M PACAP, compared to controls (FIG. 2, 18 h))?
**A.** The value was “reduced”.

**Q.** And the “area of the wounded site at 18 h” value ([3]; 10^−11 M PACAP in the presence of 15 μM AraC (FIG. 6))?
**A.** The value was “reduced”.

**Q.** And the “cell growth by MTT-assay” value (HCEC-II cells [1]; 1 day after addition, 10^−9 M to 10^−13 M PACAP, relative to cells with no PACAP (FIG. 3))?
**A.** The value was “cells grew at any concentration”.

**Q.** And the “cell growth by MTT-assay” value (HCEC-II cells [1]; 4 days after addition, 10^−9 M to 10^−13 M PACAP (FIG. 3))?
**A.** Its value is “the effect was remarkable”.

**Q.** What about the “number of BrdU positive (dividing) cells” value (HCEC-II cells [4]) of the same compound?
**A.** The value was “an increase of number of BrdU positive cells”.

**Q.** And the “area of the injured site of the cornea (fluorescent area)” value (shortened to “area of the injured site of the cornea”) ([5]; 10^−9 M PACAP instilled, 12 hours after injuring, vs saline group (FIG. 9C))?
**A.** The value was “significantly smaller”.

**Q.** What about the “periphery of the injured site of the cornea” value (from here on “periphery”) ([5]; 10^−9 M PACAP instilled, 12 hours after injuring, vs saline group (not shown in figures)) of the same compound?
**A.** The value was “significantly smaller”.

**Q.** And the “area of the injured site of the cornea” value ([5]; 10^−11 M PACAP instilled, 12 hours after injuring, vs saline group (FIG. 9C))?
**A.** The value was “significantly smaller”.

**Q.** And the “periphery” value ([5]; 10^−11 M PACAP instilled, 12 hours after injuring, vs saline group (not shown in figures))?
**A.** Its value is “significantly smaller”.

**Q.** And the “size of injured sites of corneas (fluorescence image)” value ([5]; 12 and 24 hours after injuring, PACAP-instilled vs saline-instilled group (FIG. 9A))?
**A.** The value was “became smaller than those of the saline-instilled group”.

**Q.** And the “corneal epithelium in HE staining” value ([5]; 12 hours after instillation (FIG. 9B))?
**A.** Its value is “the corneal epithelium was restored”.

**Q.** What about the “area of the injured site of the cornea” value ([5]; all concentrations (10^−9, 10^−11, 10^−13 M), 24 hours after injuring, p<0.01 vs saline group (FIG. 9C)) of the same compound?
**A.** Its value is “significantly smaller”.

**Q.** And the “periphery” value ([5]; all concentrations, 24 hours after injuring (not shown in figures))?
**A.** Its value is “significantly smaller”.

**Q.** And the “most effective concentration of PACAP” value ([5]; instillation, injured cornea area)?
**A.** Its value is 10^−11 M.

**Q.** And the “area of injured sites of corneas (fluorescent area)” value [6]?
**A.** The value was “became significantly smaller”.

**Q.** And the “tear secretion after instillation” value [7]?
**A.** The value was “did not promote tear secretion”.

**Q.** What about the “area of the scratch site” value [8] of the same compound?
**A.** The value was “significantly reduced”.

**Q.** And the “restoration of corneal epithelium” value [9]?
**A.** Its value is “accelerated”.

**Q.** Which “effect of antagonist on PACAP-induced healing of injured corneas” value ([2]; antagonist 10^−9 M instilled with PACAP, 12 hours after injuring, vs PACAP-only group, p<0.05 (FIG. 10A)) does the source give for “PACAP6-38: PACAP receptor antagonist; antagonist of PAC1R and VPAC2R (FTDSYSRYRKQMAVKKYLAAVLGKRYKQRVKNK; ends and bridges not checked; UniProt P18509 137-169, looked up, fragment)” here?
**A.** The value was “significantly suppressed”.
